Data: ChEMBL document CHEMBL5042492, “Noncovalent CDK12/13 dual inhibitors-based PROTACs degrade CDK12-Cyclin K complex and induce synthetic lethality with PARP inhibitor” (Eur J Med Chem, 2022)
Activity calls are given as the source filed them. The calls are words filed in the database; no cut-off is given here.

Key:
[1] = target: T1, Protein cereblon/Cyclin-K/Cyclin-dependent kinase 12 (Homo sapiens, UniProt O75909+Q9NYV4+Q96SW2); experiment: Protac activity at human CRBN/CDK12/CycK in human Bel-7402 cells assessed as degradation of CDK12 at 3 uM measured after 24 hrs by Western blotting assay; assay type: cell-based
[2] = target: T1, Protein cereblon/Cyclin-K/Cyclin-dependent kinase 12; experiment: Protac activity at human CRBN/CDK12/CycK in human MDA-MB-231 cells assessed as degradation of CDK12 at 3 uM measured after 24 hrs by Western blotting assay; assay type: cell-based
CDK12/Cyclin K = CDK12/Cyclin K (Homo sapiens, UniProt Q9NYV4); experiment: Inhibition of human CDK12 (696 to 1082 residues) /cyclinK (1 to 300 residues) using ac-YSPTSPpSYSPTSFpS-YSPTSPpSY-[PEG2]-RR-amid peptide as substrate in presence of ATP measured after 2 hrs by ADP-Glo kinase assay; assay type: protein-complex assay
[3] = target: T1, Protein cereblon/Cyclin-K/Cyclin-dependent kinase 12; experiment: Protac activity at human CRBN/CDK12/CycK in human MDA-MB-231 cells assessed as RNAP2 CTD Ser2 phosphorylation level at 0.1 to 30 uM measured after 24 hrs by Western blotting assay; assay type: cell-based; settings: dose 0.1-30 µM
[4] = target: T1, Protein cereblon/Cyclin-K/Cyclin-dependent kinase 12; experiment: Protac activity at human CRBN/CDK12/CycK in human Bel-7402 cells assessed as downregulation of Mcl-1 level upto 30 uM measured after 24 hrs by Western blotting assay; assay type: cell-based; settings: dose microM <=30, time 24.0 hrs
[5] = target: T1, Protein cereblon/Cyclin-K/Cyclin-dependent kinase 12; experiment: Protac activity at human CRBN/CDK12/CycK in human Bel-7402 cells assessed as RNAP2 CTD Ser2 phosphorylation level at 0.1 to 30 uM measured after 24 hrs by Western blotting assay; assay type: cell-based; settings: dose 0.1-30 µM
[6] = target: T1, Protein cereblon/Cyclin-K/Cyclin-dependent kinase 12; experiment: Protac activity at human CRBN/CDK12/CycK in human MDA-MB-231 cells assessed as downregulation of Mcl-1 level upto 30 uM measured after 24 hrs by Western blotting assay; assay type: cell-based; settings: dose microM <=30, time 24.0 hrs
[7] = target: T2, CDK12/Cyclin K (Homo sapiens) (UniProt O75909+Q9NYV4); experiment: Protac activity at human CDK12/CycK in human MDA-MB-231 (CRBN/WT) cells assessed as degradation of CDK12 measured after 24 hrs by Western blotting assay; assay type: cell-based
[8] = target: T1, Protein cereblon/Cyclin-K/Cyclin-dependent kinase 12; experiment: Protac activity at human CRBN/CDK12/CycK in human Bel-7402 (CRBN/KO) cells assessed as degradation of CDK12 measured after 24 hrs by Western blotting assay; assay type: cell-based
[9] = target: T1, Protein cereblon/Cyclin-K/Cyclin-dependent kinase 12; experiment: Protac activity at human CRBN/CDK12/CycK in human MDA-MB-231(CRBN/KO) cells assessed as degradation of CDK12 measured after 24 hrs by Western blotting assay; assay type: cell-based
[10] = target: T2, CDK12/Cyclin K (Homo sapiens); experiment: Protac activity at human CDK12/CycK in human Bel-7402 (CRBN/WT) cells assessed as degradation of CDK12 measured after 24 hrs by Western blotting assay; assay type: cell-based

CDK12/Cyclin K, sequence (O75909 whole entry, the tested form may be a part): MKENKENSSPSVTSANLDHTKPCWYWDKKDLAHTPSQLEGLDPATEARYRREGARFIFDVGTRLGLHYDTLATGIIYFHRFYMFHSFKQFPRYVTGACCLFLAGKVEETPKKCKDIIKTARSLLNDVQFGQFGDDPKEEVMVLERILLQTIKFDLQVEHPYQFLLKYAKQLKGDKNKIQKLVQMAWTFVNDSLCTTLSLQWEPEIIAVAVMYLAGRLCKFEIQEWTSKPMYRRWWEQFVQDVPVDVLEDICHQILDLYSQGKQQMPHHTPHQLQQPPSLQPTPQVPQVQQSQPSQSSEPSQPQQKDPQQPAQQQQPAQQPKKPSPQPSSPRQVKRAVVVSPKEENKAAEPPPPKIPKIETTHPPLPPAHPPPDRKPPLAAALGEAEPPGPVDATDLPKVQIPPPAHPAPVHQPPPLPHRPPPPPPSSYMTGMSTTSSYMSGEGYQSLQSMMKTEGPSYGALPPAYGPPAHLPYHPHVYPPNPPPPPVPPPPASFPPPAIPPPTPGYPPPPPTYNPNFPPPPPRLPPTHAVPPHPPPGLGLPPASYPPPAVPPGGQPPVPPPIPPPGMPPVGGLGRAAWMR
CDK12/Cyclin K, sequence (Q9NYV4 whole entry, the tested form may be a part): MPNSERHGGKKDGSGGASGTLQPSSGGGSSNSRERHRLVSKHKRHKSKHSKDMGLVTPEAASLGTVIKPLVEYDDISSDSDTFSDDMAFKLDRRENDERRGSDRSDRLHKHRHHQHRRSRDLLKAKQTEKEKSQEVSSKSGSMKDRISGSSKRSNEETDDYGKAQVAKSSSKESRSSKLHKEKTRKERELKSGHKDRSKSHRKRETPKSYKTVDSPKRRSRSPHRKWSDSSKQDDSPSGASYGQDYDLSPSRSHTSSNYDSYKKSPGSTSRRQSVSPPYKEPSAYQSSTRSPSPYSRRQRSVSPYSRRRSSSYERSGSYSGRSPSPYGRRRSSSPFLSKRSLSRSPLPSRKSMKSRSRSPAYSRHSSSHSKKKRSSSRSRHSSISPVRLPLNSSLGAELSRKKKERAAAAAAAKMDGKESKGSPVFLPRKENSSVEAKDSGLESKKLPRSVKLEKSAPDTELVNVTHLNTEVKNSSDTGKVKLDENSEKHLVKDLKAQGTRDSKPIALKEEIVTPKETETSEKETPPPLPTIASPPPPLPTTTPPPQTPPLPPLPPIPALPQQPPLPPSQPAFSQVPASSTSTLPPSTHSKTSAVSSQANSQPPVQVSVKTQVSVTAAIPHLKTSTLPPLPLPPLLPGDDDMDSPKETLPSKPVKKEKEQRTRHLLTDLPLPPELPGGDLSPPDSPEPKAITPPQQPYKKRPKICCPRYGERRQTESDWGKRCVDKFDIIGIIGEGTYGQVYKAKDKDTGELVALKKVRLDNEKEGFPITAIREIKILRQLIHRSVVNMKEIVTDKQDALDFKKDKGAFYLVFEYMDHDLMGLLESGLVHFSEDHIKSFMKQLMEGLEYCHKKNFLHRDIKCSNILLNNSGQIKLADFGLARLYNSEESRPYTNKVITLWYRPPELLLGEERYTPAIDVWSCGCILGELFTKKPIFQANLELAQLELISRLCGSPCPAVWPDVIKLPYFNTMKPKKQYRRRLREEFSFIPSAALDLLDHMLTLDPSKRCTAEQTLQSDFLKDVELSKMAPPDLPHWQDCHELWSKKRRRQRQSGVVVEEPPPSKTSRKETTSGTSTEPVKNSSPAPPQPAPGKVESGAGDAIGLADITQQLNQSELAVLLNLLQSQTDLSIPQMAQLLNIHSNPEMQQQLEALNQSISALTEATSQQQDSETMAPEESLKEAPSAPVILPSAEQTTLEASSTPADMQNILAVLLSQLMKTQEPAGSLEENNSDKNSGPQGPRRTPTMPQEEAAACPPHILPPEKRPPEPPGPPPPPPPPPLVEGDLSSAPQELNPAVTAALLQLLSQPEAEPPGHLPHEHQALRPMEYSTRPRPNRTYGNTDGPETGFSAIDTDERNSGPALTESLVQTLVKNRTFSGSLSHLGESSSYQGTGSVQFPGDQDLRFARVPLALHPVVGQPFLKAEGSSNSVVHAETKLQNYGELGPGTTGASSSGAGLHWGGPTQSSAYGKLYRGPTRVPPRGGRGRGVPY
T1 sequence (O75909 whole entry, looked up): as the sequence (O75909 whole entry, the tested form may be a part) above
T1 sequence (Q96SW2 whole entry, looked up): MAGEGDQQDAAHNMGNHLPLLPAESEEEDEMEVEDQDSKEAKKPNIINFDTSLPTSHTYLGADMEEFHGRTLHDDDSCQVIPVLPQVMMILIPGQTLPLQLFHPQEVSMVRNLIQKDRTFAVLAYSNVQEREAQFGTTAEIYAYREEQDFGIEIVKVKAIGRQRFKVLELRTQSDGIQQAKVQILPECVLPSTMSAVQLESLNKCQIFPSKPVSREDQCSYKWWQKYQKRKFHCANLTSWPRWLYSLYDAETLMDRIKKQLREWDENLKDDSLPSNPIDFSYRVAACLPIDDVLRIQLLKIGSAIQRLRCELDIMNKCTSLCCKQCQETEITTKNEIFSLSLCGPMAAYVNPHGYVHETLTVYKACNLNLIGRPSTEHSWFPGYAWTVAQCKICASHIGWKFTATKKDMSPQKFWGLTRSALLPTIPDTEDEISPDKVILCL
T1 sequence (Q9NYV4 whole entry, looked up): as the sequence (Q9NYV4 whole entry, the tested form may be a part) above
T2 sequence (O75909 whole entry, looked up): as the sequence (O75909 whole entry, the tested form may be a part) above
T2 sequence (Q9NYV4 whole entry, looked up): as the sequence (Q9NYV4 whole entry, the tested form may be a part) above

CC(C)n1cnc2c(NCc3nc4cc(F)c(NCCCCCCNC(=O)COc5cccc6c5C(=O)N(C5CCC(=O)NC5=O)C6=O)cc4[nH]3)nc(N3CCOCC3)nc21 (stereo not drawn)
Activity [1]: Active
Activity [2]: Active
IC50 (CDK12/Cyclin K): 119 nM

COCCOCCOc1cc2[nH]c(CNc3nc(N4CCOCC4)nc4c3ncn4-c3cnn(C)c3)nc2cc1F
IC50 (CDK12/Cyclin K): 411 nM

CN(C)C/C=C/C(=O)Nc1ccc(C(=O)N2CCC[C@@H](Nc3ncc(Cl)c(-c4c[nH]c5ccccc45)n3)C2)cc1
Activity [3]: Active
Activity [4]: Active
Activity [5]: Active
Activity [6]: Active

COCCOCCOc1cc2[nH]c(CNc3nc(OCC[C@@H]4CCCCN4)nc4c3ncn4C(C)C)nc2cc1F
IC50 (CDK12/Cyclin K): 66.4 nM

Cn1cc(-n2cnc3c(NCc4nc5cc(Cl)c(Cl)cc5[nH]4)nc(N4CCOCC4)nc32)cn1
Activity [7]: Active
Activity [8]: Active
Activity [9]: Active
Activity [10]: Active
